The values that follow are results of earlier work, collected in paper PMC6931124, “NPY1R-targeted peptide-mediated delivery of a dual PPARα/γ agonist to adipocytes enhances adipogenesis and prevents diabetes progression” (Molecular Metabolism, 2019).

This data set relates to 12-week-old db/db mice. Conditions: ref [100], cited from earlier work. The text has this:
In contradiction to previous tesa in vivo studies, no major improvements in hyperglycemia (serum HbA1C) and serum insulin levels were detected in the treated mice compared to the untreated animals. […] No major changes in the total serum glucose occurred and the insulin levels remained unchanged as the mice adapted to the amount of glucose in their blood. An additional ...

Structures are written as SMILES.

As to `COc1ccc(OC(=O)N(CC(=O)O)Cc2ccc(OCCc3nc(-c4ccccc4)oc3C)cc2)cc1` [muraglitazar], the “control of glucose and insulin levels, 2–4 weeks” value (2–4 weeks) is listed as “treatment for 2–4 weeks did”. The “control of glucose and insulin levels, one week” value (one week) was “did not lead to significant effects”.
